For 19 compounds, IC50 results are on record in ChEMBL document CHEMBL1135623, “Synthesis and pharmacological evaluation of 1-[(1,2-diphenyl-1H-4-imidazolyl)methyl]-4-phenylpiperazines with clozapine-like mixed activities at dopamine D(2), serotonin, and GABA(A) receptors” (J Med Chem, 2002).

In test [1] the target is T1, 5-hydroxytryptamine receptor 1A (Rattus norvegicus, UniProt P19327).
T1 sequence (P19327 whole entry): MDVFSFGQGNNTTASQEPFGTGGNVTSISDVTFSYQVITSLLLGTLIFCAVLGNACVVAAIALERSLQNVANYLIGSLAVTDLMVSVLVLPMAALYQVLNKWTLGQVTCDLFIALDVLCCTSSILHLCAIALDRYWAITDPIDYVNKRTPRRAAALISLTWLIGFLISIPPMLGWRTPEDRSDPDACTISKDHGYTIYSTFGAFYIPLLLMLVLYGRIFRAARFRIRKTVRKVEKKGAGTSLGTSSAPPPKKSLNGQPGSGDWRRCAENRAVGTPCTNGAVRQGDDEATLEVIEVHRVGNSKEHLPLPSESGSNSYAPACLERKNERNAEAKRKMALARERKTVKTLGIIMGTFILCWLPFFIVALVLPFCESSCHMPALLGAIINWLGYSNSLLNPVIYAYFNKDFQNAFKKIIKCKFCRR
The test can be described thus: In vitro binding affinity for serotonin 5-hydroxytryptamine 1A receptor fof rat cerebral cortex using [3H]8-OH-DPAT as radioligand. In kind it is tissue-based.

The target in test [2] is 5-hydroxytryptamine receptor 2A (Rattus norvegicus, UniProt P14842). Kind of test: In vitro binding affinity for serotonin 5-hydroxytryptamine 2A receptor of rat cerebral cortex using [3H]ketanserin as radioligand. It counts as tissue-based.
Sequence of 5-hydroxytryptamine receptor 2A (P14842 whole entry): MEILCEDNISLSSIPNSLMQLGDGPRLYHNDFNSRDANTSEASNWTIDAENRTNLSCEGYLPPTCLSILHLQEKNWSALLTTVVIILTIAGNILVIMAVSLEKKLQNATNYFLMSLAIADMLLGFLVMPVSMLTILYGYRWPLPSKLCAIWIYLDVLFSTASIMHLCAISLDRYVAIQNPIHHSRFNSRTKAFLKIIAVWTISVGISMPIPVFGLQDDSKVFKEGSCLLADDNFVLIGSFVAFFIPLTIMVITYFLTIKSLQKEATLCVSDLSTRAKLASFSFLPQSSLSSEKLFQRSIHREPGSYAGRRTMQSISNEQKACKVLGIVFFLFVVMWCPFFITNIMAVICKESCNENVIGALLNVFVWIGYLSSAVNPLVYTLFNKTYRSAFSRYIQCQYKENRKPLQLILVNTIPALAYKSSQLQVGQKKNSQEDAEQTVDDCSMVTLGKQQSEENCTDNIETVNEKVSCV

SMILES strings stand for the structures.

As a reminder, the IC50 is the concentration needed to halve the response being measured. A high value points to lower potency. `Fc1ccc(N2CCN(Cc3cn(-c4ccccc4)c(-c4ccccc4)n3)CC2)cc1`: the IC50 is 806 nM in test [1] and 501 nM in test [2].

For `Clc1cccc(N2CCN(Cc3cn(-c4ccccc4)c(-c4ccccc4)n3)CC2)c1`, the IC50 in test [1] is 166 nM; in test [2], 717 nM.

`CCOc1ccccc1N1CCN(Cc2cn(-c3ccc(F)cc3)c(-c3ccc(F)cc3)n2)CC1` returned an IC50 in test [1] of 51.9 nM.

Turning to `c1ccc(-c2nc(CN3CCN(c4ccccc4)CC3)cn2-c2ccccc2)cc1`, the values for the half-inhibitory concentration (IC50) in test [1] and in test [2] were 2700 nM and over 10000 nM, respectively.

Turning to `FC(F)(F)c1ccc(N2CCN(Cc3cn(-c4ccccc4)c(-c4ccccc4)n3)CC2)cc1`, the IC50 in test [1] stood at 224 nM; in test [2], 1510 nM.

As to `Fc1ccc(-c2nc(CN3CCN(c4ccccc4)CC3)cn2-c2ccc(F)cc2)cc1`, the IC50 in test [1] came to 525 nM; in test [2], 783 nM.

Regarding `COc1ccccc1N1CCN(Cc2cn(-c3ccc(F)cc3)c(-c3ccc(F)cc3)n2)CC1`, the figures for the IC50 in test [1] and in test [2] were 171 nM and 259 nM, respectively.

For `CCOc1ccccc1N1CCN(Cc2cn(-c3ccccc3)c(-c3ccccc3)n2)CC1`, the half-maximal inhibitory concentration (IC50) in test [1] was 56.9 nM; in test [2], 172 nM.

As to `COc1ccc(N2CCN(Cc3cn(-c4ccccc4)c(-c4ccccc4)n3)CC2)cc1`, the concentration for half-maximal inhibition (IC50) in test [1] is 8440 nM; in test [2] it was 1920 nM.

Regarding `FC(F)(F)c1cccc(N2CCN(Cc3cn(-c4ccccc4)c(-c4ccccc4)n3)CC2)c1`, the concentration for half-maximal inhibition (IC50) in test [1] was 206 nM; in test [2], 2130 nM.

Consider `Clc1ccccc1N1CCN(Cc2cn(-c3ccccc3)c(-c3ccccc3)n2)CC1`, for which the results for the 50% inhibitory concentration (IC50) in test [1] and in test [2] were 255 nM and 142 nM, respectively.

With `COc1cccc(N2CCN(Cc3cn(-c4ccccc4)c(-c4ccccc4)n3)CC2)c1`, the IC50 came out at 271 nM in test [1] and 2340 nM in test [2].

As for `c1ccc(-c2nc(CN3CCN(c4ccccn4)CC3)cn2-c2ccccc2)cc1`, the IC50 in test [1] turned out to be 197 nM; in test [2], 2020 nM.

`CN1CCN(Cc2cn(-c3ccccc3)c(-c3ccccc3)n2)CC1` returned a 50% inhibitory concentration (IC50) in test [2] of over 10000 nM.

In the case of `Clc1ccc(N2CCN(Cc3cn(-c4ccccc4)c(-c4ccccc4)n3)CC2)cc1`, the IC50 in test [1] was found to be 1890 nM; in test [2], 315 nM.

With `c1ccc(CN2CCN(Cc3cn(-c4ccccc4)c(-c4ccccc4)n3)CC2)cc1`, the half-maximal inhibitory concentration (IC50) in test [1] was 1130 nM; in test [2] it was 2170 nM.

With `Fc1ccccc1N1CCN(Cc2cn(-c3ccccc3)c(-c3ccccc3)n2)CC1`, the IC50 in test [1] worked out at 332 nM; in test [2] it was 25.3 nM.

`COc1ccccc1N1CCN(Cc2cn(-c3ccccc3)c(-c3ccccc3)n2)CC1` yielded a half-inhibitory concentration (IC50) in test [2] of 131 nM. This lies in the sub-micromolar range.

Compound `CN(C)CCCSc1ccccc1NC(=O)/C=C/c1ccccc1` [CINANSERIN] yielded an IC50 in test [2] of 14.8 nM.
